These results are taken from patent US20250326722A1 (SHANGHAI HANSOH BIOMEDICAL CO., LTD., priority 2022, published 2025).

The subject of experiment [1] is LDLR level in HepG2 cells. Briefly: Effect on the LDLR level in HepG2 cells (ELISA). It counts as cell-based, human. Further details: concentration or dose not given beside the values. The note with it: 48 hours incubation, LDLR ELISA of lysate. The procedure: To detect the effect of the compounds on the LDLR protein level.
Envision (PE-Cisbio: 2105-0020), centrifuge (Eppendorf: 5810R), water purifier (THERMO: Pacific T II+Micropure), plate washer (Thermo: […] VERSA), and microplate shaker (Thermo: 88882006)
• 1) HepG2 cell strain was cultured in the complete culture medium at 37° C., 5% CO2 to 70-90% confluence. • 2) The cells were digested and resuspended in the experimental culture medium, inoculation was performed at 25,000 cells/well/200 μL in a 96-well cell culture plate, and the cells were cultured at 37° C., 5% CO2 for 20-24 hours. • 3) The culture medium was removed from the cell culture plate, and the cell culture plate was washed once by adding 200 μl of the experimental culture medium to each well. • 4) Preparation of positive control compound and compound to be tested: the positive control compound and the compound to be tested were diluted on the compound plate. • 5) The diluted compound was added to the cell culture plate at 250 μL per well and incubated at 37° C. and 5% CO2 for 48 hours. • 6) The cell culture medium was removed, the cells were washed with PBS, and 50 μL of the cell lysis buffer and the protein inhibitor were added. • 7) After centrifugation, the lysate was removed and the sample was stored for later use. • 8) Preparation of standard curve: corresponding volumes of Dilution buffer were successively added to respective standard tubes, and the standard was diluted in series by taking the corresponding volume from the original tube or the last concentration tube. • 9) Preparation of washing liquid: 10× Wash buffer was diluted into 1× with Milli-Q for later use. • 10) According to the standard curve wells and sample wells set according to a plate map, 80 μL/well of the corresponding standards and samples were added to the wells, with 2 replicate wells. A well in which no standard was added was used as a background value well. A self-adhesive seal was applied, the plate was placed on a plate shaker at room temperature, gently shaken, uniformly mixed, and incubated for 2 hours. • 11) The plate was placed on the plate washer, the washing liquid was set to 350 μL per well, and the plate was washed 4 times repeatedly. • 12) 200 μL of Human LDLR conjugate was added, a self-adhesive seal was applied, and the plate was placed on the plate shaker, well mixed uniformly, and incubated for 2 hours. • 13) The plate was placed on the plate washer, the washing liquid was set to 350 μL per well, and the plate was washed 4 times repeatedly. • 14) 200 μL/well of Substrate solution was added, and the plate was placed in the dark, applied with a self-adhesive seal, placed on the plate shaker, well mixed uniformly, and incubated for 20 minutes. • 15) 50 μL/well of Stop solution was added and mixed uniformly over 20 min. • 16) The optical density (OD) value in each well was measured in sequence at a wavelength of 450 nm by the microplate reader.
After the OD values were read by the microplate reader, the OD value of the 0-concentration standard in the standard group was subtracted from the OD values of the standards, control group, and samples to obtain the actual OD values for these wells. A standard curve was plotted with Graphpad and the concentration of the sample was calculated. If the dilution was performed during the sample detection, the calculated sample concentration was necessarily multiplied by the corresponding dilution ratio in the final calculation, which was the actual concentration of the sample. Concentration increase %=(actual concentration in control-actual concentration in sample)/actual concentration in control*100.

The test system of experiment [2] is hyperlipidemia animal model of B6-hPCSK9 transgenic mice. Briefly: In vivo pharmacodynamics in hyperlipidemia animal model of B6-hPCSK9 transgenic mice. The settings on record: PO administration, 10 mpk, Day 14, high-fat feed. Further details: species or system B6-hPCSK9 transgenic C57 mice. The procedure: The compounds of the present disclosure were evaluated for in vivo pharmacodynamics in a hyperlipidemia animal model of B6-hPCSK9 transgenic mice.
B6-hPCSK9 transgenic C57 mice, 6-8 weeks old, male, purchased from Jiangsu GemPharmatech Co., Ltd.
After delivery to a barrier system, the animals were given one week for acclimatization and began to feed on the high-fat feed. The body weight and feed weight were weighed once a week, and the body weight and food intake thereof were recorded.
a. The animals were grouped by a random grouping method.
c. According to the grouping results, administration with the test drug was started (mode of administration: oral administration; administration volume: 10 mL/kg; frequency of administration: once/day or single administration; administration cycle: 21 days; vehicle: 10% Solutol HS 15/90% Saline).
d. After the test drug was administered, the body weight and feed weight were weighed twice a week and blood was taken once a week.
e. The data was processed with software such as Excel. […] PCSK9 in plasma was detected by ELISA.

The target in experiment [3] is PCSK9 secreted by HepG2 cells (Homo sapiens (Human), UniProt Q8NBP7). Briefly: Effect on the concentration of PCSK9 secreted by HepG2 cells (ELISA). It is filed as cell-based. The settings on record: 48 hours incubation, read-out: Inhibitory activity on PCSK9, IC50.
Sequence of PCSK9 secreted by HepG2 cells (Q8NBP7 153-692): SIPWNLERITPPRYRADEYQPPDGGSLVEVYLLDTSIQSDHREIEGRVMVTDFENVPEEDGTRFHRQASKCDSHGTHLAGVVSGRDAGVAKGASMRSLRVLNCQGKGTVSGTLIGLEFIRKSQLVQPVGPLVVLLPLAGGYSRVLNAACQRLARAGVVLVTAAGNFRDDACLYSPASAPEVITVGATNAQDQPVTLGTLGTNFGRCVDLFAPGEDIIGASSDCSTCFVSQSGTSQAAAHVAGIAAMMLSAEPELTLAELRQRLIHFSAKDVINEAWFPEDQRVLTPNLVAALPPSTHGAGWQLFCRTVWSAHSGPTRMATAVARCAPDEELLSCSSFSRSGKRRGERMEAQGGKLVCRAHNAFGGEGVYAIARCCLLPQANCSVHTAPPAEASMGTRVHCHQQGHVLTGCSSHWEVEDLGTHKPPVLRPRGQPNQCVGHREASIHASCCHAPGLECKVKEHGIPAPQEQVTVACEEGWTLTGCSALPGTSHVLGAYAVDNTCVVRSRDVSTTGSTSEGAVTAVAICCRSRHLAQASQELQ
Sequence of PCSK9 secreted by HepG2 cells (Q8NBP7 31-152 partner): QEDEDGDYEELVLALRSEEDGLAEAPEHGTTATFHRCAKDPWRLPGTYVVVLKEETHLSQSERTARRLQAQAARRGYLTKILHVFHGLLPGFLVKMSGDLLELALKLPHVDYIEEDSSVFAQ

For the molecule `O=C1c2c(cccc2C(F)(F)F)CN1c1ccc(N[C@H]2CC[C@H](Nc3ncc(C(F)(F)F)nn3)C2)nc1` [Example 157, 7-(Trifluoromethyl)-2-(6-(((1S,3S)-3-((6-(trifluoromethyl)-1,2,4-triazin-3-yl)amino)cyclopentyl)amino)pyridin-3-yl) isoindolin-1-one], in experiment [1], the LDLR expression level came to 129%. Further, the “LDL-C change, Day 14” value in experiment [2] is −28.99%. The IC50 in experiment [3] came to 4.2 µM.
In turn, `Cc1cc2c(cn1)CN(c1ccc(N[C@H]3CC[C@H](Nc4ncc(C(F)(F)F)nn4)C3)nc1)C2=O` [Example 148, 6-Methyl-2-(6-(((1S,3S)-3-((6-(trifluoromethyl)-1,2,4-triazin-3-yl)amino)cyclopentyl)amino)pyridin-3-yl)-2,3-dihydro-1H-pyrrolo[3,4-c]pyridin-1-one] came in with an LDLR expression level in experiment [1] of 121%. In experiment [2], the “LDL-C change, Day 14” value was −24.61%. Moreover, in experiment [3], the IC50 worked out at 9.4 µM.
Consider `O=C1c2ncccc2CN1c1ccc(N[C@H]2CC[C@H](Nc3ncc(C(F)(F)F)nn3)C2)nc1` [Example 144], for which the LDLR expression level in experiment [1] worked out at 117%. For the same molecule, the “LDL-C change, Day 14” value in experiment [2] is reported as −30.39%. For the same molecule, the 50% inhibitory concentration (IC50) in experiment [3] turned out to be 27.5 µM.
